The numbers were not newly measured in patent US20170112867A1, “PHARMACEUTICAL COMBINATIONS OF […] RIBAVIRIN” (SANOVEL ILAC SANAYI VE TICARET ANONIM SIRKETI, priority 2014, published 2017), which cites them from elsewhere.

The subject of data set [1] is Cytochromes P450 (CYP).
The test system of data set [2] is chronic hepatitis C (CHC) infections. The note with it: ribavirin alone, during or after therapy.

`CC(C)OC(=O)[C@H](C)N[P@](=O)(OC[C@H]1O[C@@H](n2ccc(=O)[nH]c2=O)[C@](C)(F)[C@@H]1O)Oc1ccccc1` [Sofosbuvir, (S)-Isopropyl 2-((S)-(((2R,3R,4R,5R)-5-(2,4-dioxo3,4-dihydropyrimidin-1(2H)-yl)-4-fluoro-3-hydroxy-4-methyltetrahydrofuran-2yl)methoxy)-(phenoxy)phosphorylamino)propanoate]: the solubility in water entry is given as “slightly soluble”. In addition, the “metabolism by Cytochromes P450 (CYP)” value in data set [1] is reported as “not metabolized”. Where the note is “across the pH range of 2-7.7 at 37° C.”, the solubility (in general, how much of the substance goes into solution per volume) is no less than 2000 µg/mL.

Take “1-β-Dribofuranosyl-1H-1,2,4-triazole-3-carboxamide [Ribavirin]”: the solubility in water result was “freely soluble”. Besides, the “solubility in anhydrous alcohol” value (anhydrous alcohol) is listed as “slightly soluble”. Further, the “HCV RNA levels” value in data set [2] is reported as “did not reduce HCV RNA levels”.
